US20070203066A1, “Compositions and methods for inhibiting cellular proliferation” (priority 2005, published 2007)
Non-standard residues stand in square brackets, D forms with d. Primed or numbered codes have the meaning given here. No end group written: not given here. Ida = iminodiacetic acid linker, its two carboxyls bind the Lys side-chain amines of two peptides, giving a homodimer; Ida(3) = iminodiacetic acid linker, Lys side-chain amines bound to its two carboxyl groups; Ida(4) = iminodiacetic acid linker (dimerization linker bound to lysine side chain); Ida″ = iminodiacetic acid linker bound to the Lys side-chain amine, forming a dimer; Ahx = NCCCCCC(=O)O

Each molecule was assayed on HUVECs. Details: 48 h.
Type: cell-based
Experimental: HUVECs were routinely cultured to near confluency in EGM media (Clontech, Mountain View, California). The cells were trypsinized and plated in a 96-well plate at 5,000 cells per well per 100 μl EBM supplemented with 2% FCS and antibiotics. The cells were allowed to adhere to the plate for at least 12 hours. Then, bFGF at 10 ng/ml or VEGF at 5 ng/ml, and various concentrations of peptide, were added to the wells. The cells were cultured for 48 hours at 37 ° C. in a 5% CO2 atmosphere. Cell proliferation was determined using a bromo-deoxyuridine (BrdU) incorporation method as described by the manufacturer. Inhibition of cell proliferation was assessed by BrdU incorporation.

In the case of `CC[C@@H](C)[C@@H](NC(=O)[C@@H](NC(=O)[C@H](C)NC(=O)[C@@H](NC(=O)[C@H](CCCNC(=N)N)NC(=O)[C@H](CCC(N)=O)NC(=O)[C@H](CCCNC(=N)N)NC(=O)[C@H](CCCNC(=N)N)NC(=O)[C@H](CCCNC(=N)N)NC(=O)[C@H](CCCNC(=N)N)NC(=O)[C@H](C)NC(C)=O)C(C)C)[C@@H](C)CC)C(=O)N[C@@H](Cc1ccccc1)C(=O)N[C@@H](CCCCNC(=O)CN(CC(=O)NCCCC[C@H](NC(=O)[C@H](Cc1ccccc1)NC(=O)[C@H](NC(=O)[C@@H](NC(=O)[C@H](C)NC(=O)[C@@H](NC(=O)[C@H](CCCNC(=N)N)NC(=O)[C@H](CCC(N)=O)NC(=O)[C@H](CCCNC(=N)N)NC(=O)[C@H](CCCNC(=N)N)NC(=O)[C@H](CCCNC(=N)N)NC(=O)[C@H](CCCNC(=N)N)NC(=O)[C@H](C)NC(C)=O)C(C)C)[C@@H](C)CC)[C@H](C)CC)C(N)=O)C(=O)CCNC(=O)OC(C)(C)C)C(N)=O` [Peptide 254], the IC50 is reported as < 10 µM.

Same assay, conditions: HUVEC proliferation, bFGF at 10 ng/ml or VEGF at 5 ng/ml, 48 hours, BrdU incorporation; read-out: IC50 on HUVECs

“442 (Ac-RRRRVQAVAIYFK(Ida(4)); not fully specified (C-terminus); also: homodimer via Ida linker at K13) [compound 442]” and “422 (Ac-ARRRRQTVAIYFK; not fully specified (residue 13, C-terminus); also: homodimer of residues 1-13 via Ida linker on K13 side chain) [compound 422]” cannot be ordered by IC50: < 10 µM for the first, < 10 µM for the second.

“208 (Ac-RRRARQRVAIIF; also: dimer: Phe C-termini joined via Lys linker) [compound 208]” and “452 (Ac-PRRRRQAVAIVFK-NH2; not fully specified (residue 13); also: homodimer via Ida linker at K13) [compound 452]” cannot be ordered by IC50: < 10 µM for the first, < 10 µM for the second.

First: 470 (Ac-PRRRDQAVAIYFK(Ida(3)); not fully specified (C-terminus); also: homodimer via Ida linker on Lys13 side chain) [compound 470]
Second: 300 (Ac-RRRRRQAVRIPIPFK-NH2; not fully specified (residue 15); also: homodimer: Lys15 side chain bound to Ida linker) [compound 300]
The IC50 of the first is higher: > 30 µM for the first, 10 to 30 µM for the second. The second is the more potent here.

Compared with KTKRKRKKQAVKIIFVQNM [compound 114], “399 (Ac-ARRRRQAVRIYFK; not fully specified (residue 13, C-terminus); also: homotrimer via ATA linker at Lys13 side chain) [compound 399]” is lower in IC50: > 30 µM for the first, < 10 µM for the second.

Compared with KRKRKKQRVKIAYEEIFV [compound 61], “218 (Ac-RARRRQAVAIIF; also: dimer: Phe C-termini joined via Lys linker) [compound 218]” is lower in IC50: 10 to 30 µM for the first, < 10 µM for the second. The second is the more potent here.

KTKRKRKKQRAKIIFVQNM [compound 113] and “463 (Ac-ARRARQAVAIYFK(Ida(3)); not fully specified (C-terminus); also: homodimer via Ida linker on Lys side chains, linker at 13 via Ida, other end not in the chain) [compound 463]” cannot be ordered by IC50: < 10 µM for the first, < 10 µM for the second.

KAKRKRKKQRVKIIFVQNM [compound 122] and “385 (Ac-ARRRRQMVAIYFK-NH2; not fully specified (residue 13); also: homodimer via Ida linker on Lys13 side chain, Ida amine Boc) [compound 385]” cannot be ordered by IC50: < 10 µM for the first, < 10 µM for the second.

“129 (TKRKRKKQRVKI[Ahx][Ahx]IF; also: dimer: C-terminus of Phe16 of each chain bound to one amino group of a Lysine linker) [compound 129]” and 311 (Ac-RRRRRQAVRITITFK) [compound 311] cannot be ordered by IC50: < 10 µM for the first, < 10 µM for the second.

“434 (Ac-RRRRFQAVAIYFK(Ida(4)); not fully specified (C-terminus); also: homodimer via Ida linker at K13) [compound 434]” and “505 (Ac-PRRYRQAVAIYFK; not fully specified (residue 13, C-terminus); also: homodimer via Ida linker on Lys13 side chain) [compound 505]” cannot be ordered by IC50: < 10 µM for the first, < 10 µM for the second.

First: AAKRKRKKQRVKIAYEEIFVQNM [compound 72]
Second: 356 (Ac-A[dR]RRRQRVAIIFK; not fully specified) [compound 356]
The IC50 of the first is lower: 10 to 30 µM for the first, > 30 µM for the second.

“310 (Ac-RRRRRQK(Ida)VRIIFV; also: homodimer via Ida linker on Lys7 side chain) [compound 310]” and “435 (Ac-RRRRGQAVAIYFK(Ida(4)); not fully specified (C-terminus); also: homodimer via Ida linker at K13) [compound 435]” cannot be ordered by IC50: < 10 µM for the first, < 10 µM for the second.

Going from “271 (Ac-ARRRRQRVAIYF; also: homodimer via Lys linker, Phe C-termini bound to the two Lys amino groups) [compound 271]” to “366 (Ac-ARRRRQRVAHYFK-NH2; not fully specified (residue 13); also: homodimer of residues 1-13 via Ida linker on K13 side chain) [compound 366]”, the IC50 rises from < 10 µM to > 30 µM.

Going from “202 (Ac-RRAARQRVRIIF; also: dimer: C-terminal Phe bound to an amino group of a Lys linker, 2 chains per Lys) [compound 202]” to TKRKRKKQRVKIAYEEIFVQNM [compound 19], the IC50 rises from < 10 µM to > 30 µM. The first is the more potent here.

“414 (Ac-YRRRRQAVAIYFK; not fully specified (residue 13, C-terminus); also: homodimer via Ida linker on Lys side chains, linker at 13 via Ida, other end not in the chain) [compound 414]” and “273 (Ac-RARRRQAVAITFK-NH2; not fully specified (residue 13); also: homodimer: Lys13 side chain bound to Ida linker) [compound 273]” cannot be ordered by IC50: < 10 µM for the first, < 10 µM for the second.

Compared with “404 (Ac-IRRRRQAVAIYFK(Ida(3))-NH2; also: homodimer via Ida linker on Lys13 side chain, Boc on Ida amine) [compound 404]”, “357 (Ac-RRRRRQAVRIQIQFK; not fully specified) [compound 357]” is higher in IC50: < 10 µM for the first, 10 to 30 µM for the second.

Compared with “206 (Ac-RRRAAQRVRIIF; also: dimer: Phe C-termini joined via Lys linker) [compound 206]”, KNKSKGVVKIQRRKAPFVVYESIN [compound 7] is higher in IC50: < 10 µM for the first, > 30 µM for the second. The first is the more potent here.

Compared with KTKRKRKKQRVKIAFVQNM [compound 110], “395 (Ac-ARRRRQAVTIYFK; not fully specified (residue 13, C-terminus); also: homodimer of residues 1-13 via Ida linker at Lys13 side chain) [compound 395]” is lower in IC50: 10 to 30 µM for the first, < 10 µM for the second.

First: 314 (Ac-RARRRQAVAIPFK(Ida)-NH2; also: homodimer via Ida linker on Lys13 side chain) [compound 314]
Second: 488 (Ac-PRRRNQAVAIKF; not fully specified (residue 11); also: homodimer via Ida linker on Lys11 side chain) [compound 488]
The IC50 of the first is higher: > 30 µM for the first, 10 to 30 µM for the second.

First: 347 (Ac-ARRRRQRVAIYTK-NH2; not fully specified (residue 13); also: homodimer of residues 1-13 via Ida linker on Lys13 side chain) [compound 347]
Second: 498 (Ac-PRSRRQAVAIYFK(Ida″); not fully specified (C-terminus); also: homodimer via Ida linker on Lys13 side chain) [compound 498]
The IC50 of the first is higher: > 30 µM for the first, < 10 µM for the second. The second is the more potent here.

Going from “263 (Ac-A[dR]RRRQRVAIIFK-NH2; not fully specified (residue 13); also: homodimer via Ida linker on Lys13 side chains) [compound 263]” to KTKRKAAKQRVKIAYEEIFVQNM [compound 54], the IC50 rises from < 10 µM to > 30 µM. The first is the more potent here.

“329 (Ac-ARRRRQRVAIYFK-NH2; not fully specified (residue 13); also: homodimer via Lys13 side chain, GP3 linker) [compound 329]” and “186 (Ac-RRHRRQRVRIIF; also: homodimer via C-terminal Lys linker) [compound 186]” cannot be ordered by IC50: < 10 µM for the first, < 10 µM for the second.

“NKRKKQRVKIIFVKVFIIKVRQKKRKN [compound 151]” and “280 (Ac-RRRRAQAVAIYFK-NH2; not fully specified (residue 13); also: homodimer via Ida linker on Lys13 side chain) [compound 280]” cannot be ordered by IC50: < 10 µM for the first, < 10 µM for the second.

First: KAARKRKKQRVKIAYEEIFVQNM [compound 56]
Second: 355 (Ac-ARRRR[dQ]RVAIIFK; not fully specified) [compound 355]
The IC50 of the first is lower: 10 to 30 µM for the first, > 30 µM for the second. The first is the more potent here.

Compared with “305 (Ac-RRRRRQAVRIIK(Ida)VN; also: homodimer via Ida linker on Lys12 side chain) [compound 305]”, KTKRKRKKQRVKIAYVQNM [compound 39] is higher in IC50: < 10 µM for the first, 10 to 30 µM for the second.

First: 320 (XRRRRQAVHIYFK; Xaa = Acylated Histidine; The side chain of Lysine at position 13 is covalently bound to an Ida linker forming a homodimer of residues 1 through 13.) [compound 320]
Second: KTKRKRKKQRVKIIFAQNM [compound 108]
The IC50 of the first is lower: < 10 µM for the first, 10 to 30 µM for the second. The first is the more potent here.

First: KRKRKKQQRVKIAYEEIFV [compound 75]
Second: KTKRKRKKQRVKIAYEEIFVKN [compound 13]
The IC50 of the first is higher: 10 to 30 µM for the first, < 10 µM for the second. The second is the more potent here.
